# Experimental data as given in US11186588B2 (AYUMI PHARMACEUTICAL CORPORATION, priority 2017, dated 2021).
# Read-outs that look alike come from different tables or passages of the source.
# What was measured:
# [1] = molecular target: Recombinant BRD4 (44-168) protein (Homo sapiens (Human), UniProt O60885); test: BRD4-H4KAc4 binding assay (amplified luminescence proximity homogeneous assay, AlphaScreen)
# Method: In order to evaluate BRD4 inhibitory activity of the present compounds, BRD4-H4KAc4 binding assay was carried out by an amplified luminescence proximity homogeneous assay. The specific method is described below.
# H4KAc4 peptide (available from Toray Research Center, Inc., sequence SGRGK(Ac)GGK(Ac)GLGK(Ac)GGAK(Ac)RHR-K(Biotin)-NH2) was dissolved in 1×Assay buffer to prepare 1 mM H4KAc4 peptide stock solution.
# N-terminal His tag/C-terminal FLAG tag-fused type Recombinant BRD4 (44-168) protein (available from Active Motif, Cat No. 31380) was diluted with 1×Assay buffer to 1,250-fold to prepare 250 nM BRD4 solution.
# 1% DMSO solution (control) and 2 μL of each compound solution in each concentration were added to each well of AlphaPlate-384 (from PerkinElmer, Cat No. 6008350). Next, 2 μL of 250 nM BRD4 solution was added to each well of AlphaPlate-384. Further, 2 μL of 250 nM H4KAc4 peptide solution was added to each well of AlphaPlate-384. After addition of the 250 nM H4KAc4 peptide solution, the mixture was allowed to stand at room temperature under light shielding for 60 minutes, and 4 μL of AlphaScreen beads were added to each well of AlphaPlate-384. After addition of the AlphaScreen beads, the mixture was allowed to stand at room temperature under light shielding for 60 minutes, emission at 520-620 nm upon excitation at 680 nm was detected by EnVision multilabel counter (from PerkinElmer), and binding of BRD4 and H4KAc4 was detected. Incidentally, the evaluation of each compound was carried out in duplicate (2 well per 1 compound).
# (§1) The BRD4 inhibition rate (%) was calculated by the following equation using Microsoft EXCEL 2010. BRD4 inhibition rate (%)=100−{(luminescence intensity average value of each compound added well)−(average value of luminescence intensity of blank well))/(average value of luminescence intensity of control well)−(average value of luminescence intensity of blank well)}×100
# [2] = system: NF-κB; test: NF-κB reporter gene assay (TNF-α stimulated A549/NF-κB-luc cells); assay type: cell-based; settings: Homo sapiens, TNF-α stimulation
# Method: In order to evaluate NF-κB inhibitory activity of the present compounds, NF-κB reporter gene assay was carried out. The specific method is described below.
# Gene recombinant human TNF-α (available from R&D systems, Cat No. 210-TA) was dissolved in D-PBS(−) (available from Wako Pure Chemical Industries, Ltd., Cat No. 293-72601) to prepare 100 μg/mL of TNF-α solution stock solution. 100 μg/mL of the TNF-α solution stock solution was diluted with the culture medium to prepare 10 ng/mL of TNF-α solution.
# A549/NF-κB-luc cells (available from Panomics, Cat No. LR0051) were prepared at 375,000 cells/mL in the culture medium. The 375,000 cells/mL A549/NF-κB-luc cell suspension was seeded at 80 μL each on a white 96-well plate (available from Greiner, Cat No. 655073). One hour after seeding the cells, 10 μL of 2% DMSO solution (control) and each compound solution in each concentration were added to each well of the 96-well plate. One hour after the addition of each compound solution, 10 ng/mL of the TNF-α solution (10 μL) was added to each well of the 96-well plate. Three hours after the addition of 10 ng/mL of the TNF-α solution, 100 μL of Steady-Glo reagent (available from Promega, Cat No. E2510) was added to each well of the 96-well plate. After 30 to 90 minutes of the addition of the Steady-Glo reagent, the luminescence intensity of each well was detected by EnVision multilabel counter (available from PerkinElmer).
# as §1, with “NF-κB” for “The BRD4”, “NF-κB” for “BRD4”, “well)}×100 In addition, IC50 values were calculated from the calculated NF-κB inhibition rate (%) using curve fitting software XLfit (available from IDBS).” for “well)}×100”
Structure (SMILES),inhibition at 10 µM ([1]; 10 uM),other results
"Cc1sc2c(c1C)C(c1ccc(Cl)cc1)=NNc1nnc(C)n1-2 [Example 1, 4-(4-chlorophenyl)-2,3,9-trimethyl-6H-thieno[2,3-e][1,2,4]triazolo[3,4-c][1,2,4]triazepine]",99.9%,–
"COc1ccc(CN2N=C(c3ccc(Cl)cc3)c3c(sc(C)c3C)-n3c(C)nnc32)cc1 [Example 2, 4-(4-chlorophenyl)-6-(4-methoxybenzyl)-2,3,9-trimethyl-6H-thieno[2,3-e][1,2,4]triazolo[3,4-c][1,2,4]triazepine]",100%,–
"Cc1sc2c(c1C)C(c1ccc(Cl)cc1)=NN(Cc1cccnc1)c1nnc(C)n1-2 [Example 4, 4-(4-chlorophenyl)-2,3,9-trimethyl-6-(pyridin-3-ylmethyl)-6H-thieno[2,3-e][1,2,4]triazolo[3,4-c][1,2,4]triazepine]",100%,–
"Cc1sc2c(c1C)C(c1ccc(Cl)cc1)=NN(C(=O)Nc1ccccc1)c1nnc(C)n1-2 [Example 15, 4-(4-Chlorophenyl)-2,3,9-trimethyl-N-phenyl-6H-thieno[2,3-e][1,2,4]triazolo[3,4-c][1,2,4]triazepine-6-carboxamide]",22.3%,–
"Cc1sc2c(c1C)C(c1ccc(Cl)cc1)=NN(Cc1ccccc1C(F)(F)F)c1nnc(C)n1-2 [Example 17, 4-(4-chlorophenyl)-2,3,9-trimethyl-6-(2-(trifluoromethyl)benzyl)-6H-thieno[2,3-e][1,2,4]triazolo[3,4-c][1,2,4]triazepine]",69.7%,–
"Cc1sc2c(c1C)C(c1ccc(Cl)cc1)=NN(CCCc1ccccc1)c1nnc(C)n1-2 [Example 20, 4-(4-chlorophenyl)-2,3,9-trimethyl-6-(3-phenylpropyl)-6H-thieno[2,3-e][1,2,4]triazolo[3,4-c][1,2,4]triazepine]",82.2%,–
"COc1ccc(CN2N=C(c3ccccc3)c3c(sc(C)c3C)-n3c(C)nnc32)cc1 [Example 28, 6-(4-methoxybenzyl)-2,3,9-trimethyl-4-phenyl-6H-thieno[2,3-e][1,2,4]triazolo[3,4-c][1,2,4]triazepine]",101%,–
"Cc1sc2c(c1C)C(c1ccccc1)=NN(Cc1cccnc1)c1nnc(C)n1-2 [Example 30, 2,3,9-trimethyl-4-phenyl-6-(pyridin-3-ylmethyl)-6H-thieno[2,3-e]-[1,2,4]triazolo[3,4-c][1,2,4]triazepine]",101%,–
"Cc1sc2c(c1C)C(c1ccccc1)=NN(Cc1ccncc1)c1nnc(C)n1-2 [Example 32, 2,3,9-trimethyl-4-phenyl-6-(pyridin-4-ylmethyl)-6H-thieno[2,3-e][1,2,4]triazolo[3,4-c][1,2,4]triazepine]",100%,–
"Cc1sc2c(c1C)C(c1ccc(Cl)cc1)=NN(C(=O)NCc1ccccc1)c1nnc(C)n1-2 [Example 35, N-benzyl-4-(4-chlorophenyl)-2,3,9-trimethyl-6H-thieno[2,3-e][1,2,4]triazolo[3,4-c][1,2,4]triazepine-6-carboxamide]",6.6%,–
"Cc1sc2c(c1C)C(c1ccc(Cl)cc1)=NN(Cc1ccc(Cl)nc1)c1nnc(C)n1-2 [Example 37, 4-(4-chlorophenyl)-6-((6-chloropyridin-3-yl)methyl)-2,3,9-trimethyl-6H-thieno[2,3-e][1,2,4]triazolo[3,4-c][1,2,4]triazepine]",100%,–
"COc1cccnc1CN1N=C(c2ccc(Cl)cc2)c2c(sc(C)c2C)-n2c(C)nnc21 [Example 54, 4-(4-chlorophenyl)-6-((3-methoxypyridin-2-yl)methyl)-2,3,9-trimethyl-6H-thieno[2,3-e][1,2,4]triazolo[3,4-c][1,2,4]triazepine]",99.9%,–
"Cc1nnc2n1-c1sccc1C(c1ccc(Cl)cc1)=NN2 [Example 59, 4-(4-chlorophenyl)-9-methyl-6H-thieno[2,3-e][1,2,4]triazolo[3,4-c][1,2,4]triazepine]",–,inhibition at 10 µM [1]: 100%
"Cc1nnc2n1-c1sccc1C(c1ccc(Cl)cc1)=NN2Cc1ccccn1 [Example 62, 4-(4-chlorophenyl)-9-methyl-6-(pyridin-2-ylmethyl)-6H-thieno[2,3-e][1,2,4]triazolo[3,4-c][1,2,4]triazepine]",100%,–
"COc1ccc(CN2N=C(c3ccc(Cl)cc3)c3c(C)csc3-n3c(C)nnc32)cc1 [Example 66, 4-(4-chlorophenyl)-6-(4-methoxybenzyl)-3,9-dimethyl-6H-thieno[2,3-e][1,2,4]triazolo[3,4-c][1,2,4]triazepine]",100%,–
"COc1ccc(CN2N=C(c3ccc(Cl)cc3)c3cccnc3-n3c(C)nnc32)cc1 [Example 67, 5-(4-chlorophenyl)-7-(4-methoxybenzyl)-10-methyl-7H-pyrido[2,3-e][1,2,4]triazolo[3,4-c][1,2,4]triazepine]",100%,–
"COc1ccc(CN2N=C(c3ccc(Cl)cc3)c3c(sc(C)c3C)-n3c(CO)nnc32)cc1 [Example 68, (4-(4-chlorophenyl)-6-(4-methoxybenzyl)-2,3-dimethyl-6H-thieno[2,3-e][1,2,4]triazolo[3,4-c][1,2,4]triazepin-9-yl)methanol]",19.2%,–
"COc1ccc(CN2N=C(c3ccc(Cl)cc3)c3c(sc(C)c3C)-n3c2nnc3C(F)(F)F)cc1 [Example 69, 4-(4-chlorophenyl)-6-(4-methoxybenzyl)-2,3-dimethyl-9-(trifluoromethyl)-6H-thieno[2,3-e][1,2,4]triazolo[3,4-c][1,2,4]triazepine]",52%,–
"Cc1sc2c(c1C)C(c1ccccc1Cl)=NN(Cc1cccnc1)c1nnc(C)n1-2 [Example 72, 4-(2-chlorophenyl)-2,3,9-trimethyl-6-(pyridin-3-ylmethyl)-6H-thieno[2,3-e][1,2,4]triazolo[3,4-c][1,2,4]triazepine]",100%,–
"COc1ccc(C2=NN(Cc3cccnc3)c3nnc(C)n3-c3sc(C)c(C)c32)cc1 [Example 76, 4-(4-methoxyphenyl)-2,3,9-trimethyl-6-(pyridin-3-ylmethyl)-6H-thieno[2,3-e][1,2,4]triazolo[3,4-c][1,2,4]triazepine]",100%,–
"Cc1sc2c(c1C)C(c1ccc(Cl)cc1)=NN(Cc1cccnc1C(=O)O)c1nnc(C)n1-2 [Example 84, 3-((4-(4-chlorophenyl)-2,3,9-trimethyl-6H-thieno[2,3-e][1,2,4]triazolo[3,4-c][1,2,4]triazepin-6-yl)methyl)picolinic acid]",100%,–
"CCNC(=O)c1ncccc1CN1N=C(c2ccc(Cl)cc2)c2c(sc(C)c2C)-n2c(C)nnc21 [Example 85, 3-((4-(4-chlorophenyl)-2,3,9-trimethyl-6H-thieno[2,3-e][1,2,4]triazolo[3,4-c][1,2,4]triazepin-6-yl)methyl)-N-ethylpicolinamide]",13.3%,–
"Cc1sc2c(c1C)C(c1ccc(Cl)cc1)=NN(C(=O)Nc1ccccc1)c1nnc(C)n1-2 [Example 91, 4-(4-chlorophenyl)-2,3,9-trimethyl-N-phenyl-6H-thieno[2,3-e][1,2,4]triazolo[3,4-c][1,2,4]triazepine-6-carboxamide]",–,BRD4-H4KAc4 binding % of inhibition@10 uM ([1]; 10 uM): 22.4%
"CC(=O)Nc1ccc(C2=NN(Cc3cncc(O)c3)c3nnc(C)n3-c3sc(C)c(C)c32)cc1 [Example 99, N-(4-(6-((5-hydroxypyridin-3-yl)methyl)-2,3,9-trimethyl-6H-thieno[2,3-e][1,2,4]triazolo[3,4-c][1,2,4]triazepin-4-yl)phenyl)acetamide]",–,IC50 [2]: 1640 nM
